Assay results: the NIST ThermoML archive (doi:10.1016/j.fluid.2012.06.017)
Numbers after ± are expanded uncertainties.

Conditions: Liquid; Pulse-heating method

Critical pressure [kPa]	Critical temperature [K]	Compound
1140 ± 60	641 ± 12	CC(C)[O-].CC(C)[O-].CC(C)[O-].CC(C)[O-].[Ti+4] [titanium(IV) 2-propanolate]
1070 ± 60	657 ± 14	CC(C)(C)[O-].CC(C)(C)[O-].CC(C)(C)[O-].CC(C)(C)[O-].[Ti+4] [titanium(IV) 2-methylpropan-2-olate]
1310 ± 80	587 ± 12	CC(C)O[Si](OC(C)C)(OC(C)C)OC(C)C [isopropyl silicate ((C3H7O)4Si)]
